Assay results taken from patent publication US9585871B2, “Method for treating and curing leishmaniosis using fexinidazole” (Merial Limited, priority 2013, dated 2017).

Key:
[1] = system: Leishmania donovani amastigotes grown in macrophages; settings: Wyllie S et al., 2012; cited from earlier work
[2] = Multiple dosing study in dogs: systemic exposure (plasma) to fexinidazole and its metabolites; assay type: in vivo, dog; settings: dog, in vivo, po, 800 mg/kg/day
Protocol: In an embodiment, the fexinidazole may be administered to the canine as an aqueous oral suspension, comprising 5% TWEEN 80 and 0.5% Methyl cellulose 400 cP (METHOCEL). Provided in this format, fexinidazole suspensions of 5, 20, and 80 mg fexinidazole/mL may be prepared such that 10 mL of each concentration contains 50, 200, and 800 mg fexinidazole, respectively.
Moreover, inventors expect that a wide variety of dosing regimens are now available to the skilled person to achieve the necessary and sufficient fexinidazole plasma levels. For example, and as further outlined in the Examples below, any dosing regimen that produces substantially similar fexinidazole plasma levels, as compared to those levels produced by giving the dogs about 60 mg/kg/day for about twenty-eight days, is expected to substantially or completely eliminate the Leishmania parasites. Table 1 presents the systemic fexinidazole exposure following dosing of dogs with 50, 200, and 800 mg/kg/day.

AUC0-24 [2]	Structure (SMILES)	activity against Leishmania donovani amastigotes grown in macrophages [1]
74.3 ± 14.4^(1) μg · hour/mL	Cn1c([N+](=O)[O-])cnc1COc1ccc([S+](C)[O-])cc1 (stereo not drawn) [sulfoxide metabolite]	active
	Cn1c([N+](=O)[O-])cnc1COc1ccc(S(C)(=O)=O)cc1 [sulfone metabolite]	active
